Patent US7244738B2, “Arylamine-substituted quinazolinone compounds useful as alpha 1A/B adrenergic receptor antagonists” (Roche Palo Alto LLC, priority 2003, dated 2007)

| melting point | SMILES |
| --- | --- |
| 125 to 131 °C | COc1cc2[nH]c(N(C)Cc3cccc(NCc4ncc[nH]4)c3)nc(=O)c2c(OC)c1OC [Example 220, 2-({3-[(1H-Imidazol-2-ylmethyl)-amino]-benzyl}-methylamino)-5,6,7-trimethoxy-1H-quinazolin-4-one] |
| 199.9 to 201.9 °C | COc1cc2[nH]c(N(C)Cc3cccc(/N=C(\C)N(C)C)c3)nc(=O)c2c(F)c1OC [Example 221, N′-(3-{[(5-Fluoro-6,7-dimethoxy-4-oxo-1,4-dihydro-quinazolin-2-yl)-methyl-amino]-methyl}-phenyl)-N,N-dimethyl-acetamidine] |
| 245 to 249.5 °C | COc1cc2[nH]c(N(C)Cc3cccc(-n4cnc(C)c4)c3)nc(=O)c2c(C)c1OC [Example 230, 6,7-Dimethoxyt-5-methyl-2-{methyl-[3-(4-methyl-imidazol-1-yl)-benzyl]-amino}-1H-quinazolin-4-one] |
| 220.8 to 224.1 °C | COc1cc2[nH]c(N(C)Cc3cccc(-n4cccn4)c3)nc(=O)c2c(C)c1OC [Example 232, 6,7-Dimethoxy-5-methyl-2-[methyl-(3-pyrazol-1-yl-benzyl)-amino]-1H-quinazolin-4-one] |
| 220 to 223.5 °C | COc1cc2[nH]c(N(C)Cc3cccc(-n4ccc(C)n4)c3)nc(=O)c2c(C)c1OC [Example 233, 6,7-Dimethoxy-5-methyl-2-{methyl-[3-(3-methyl-pyrazol-1-yl)-benzyl]-amino}-1H-quinazolin-4-one] |
| 179 to 181 °C | COc1cc2[nH]c(N(C)Cc3ccc(C4=NCCN4C)cc3)nc(=O)c2c(C)c1OC [Example 237, 6,7-Dimethoxy-5-methyl-2-{methyl[4-(1-methyl-,5-dihydro-1H-imidazol-2-yl)-benzyl]-amino}-1H-quinazolin-4-oine] |
| 253 to 254.9 °C | COc1cc2[nH]c(N(C)Cc3cccc(C4=NCCN4CCO)c3)nc(=O)c2c(C)c1OC [Example 244, 2-({3-[1-(2-Hydroxy-ethyl)-4,5-dihydro-1H-imidazol-2-yl]-benzyl}-methyl-amino)-6,7-dimethoxy-5-methyl-1H-quinazolin-4-one] |
| 161 to 164.4 °C | COCCN1CCN=C1c1cccc(CN(C)c2nc(=O)c3c(C)c(OC)c(OC)cc3[nH]2)c1 [Example 246, 6,7-Dimethoxy-2-*{3-[1-(2-methoxy-ethyl)-4,5-dihydro-1H-imidazol-2-yl]-benzyl}-methyla-mino)-5-methyl-1H-quinazolin-4-one] |
| 255.5 to 258.9 °C | COc1cc2[nH]c(N(C)Cc3cccc(-c4ncc[nH]4)c3)nc(=O)c2c(C)c1OC [Example 248, 2-{[3-(1H-Imidazol-2-yl)-benzyl]-methyl-amino}-6,7-dimethoxy-5-methyl-1H-quinazolin-4-one] |
| 179 to 182.1 °C | COc1cc2[nH]c(N(C)Cc3cccc(-c4nccn4C)c3)nc(=O)c2c(C)c1OC [Example 249, 6,7-Dimethoxy-5-methyl-2-{methyl-[3-(1-methyl-`1H-imidazol-2-yl)-benzyl]-amino}-1H-quinazolin-4-one] |
| 226 to 228.5 °C | COc1cc2[nH]c(N(C)Cc3cccc(N4CCCS4(=O)=O)c3)nc(=O)c2c(C)c1OC [Example 252, 2-{[3-(1,1-Dioxo-1λ6-isothiazolidin-2-yl)-benzyl]-methyl-amino}-6,7-dimethoxy-5-methyl-1H-quinazolin-4-one] |
| 181.1 to 183.5 °C | COc1cc2[nH]c(N(C)Cc3cccc(N4CCCS4(=O)=O)c3)nc(=O)c2c(OC)c1OC [Example 253, {[3-(1,1-Dioxo-1λ6-isothiazolidin-2-yl)-benzyl]-methyl-amino}-5,6,7-trimethoxy-1H-quinazolin-4-one] |
| 254.8 to 257.1 °C | COc1cc2[nH]c(N(C)Cc3cccc(N4CCOC4=O)c3)nc(=O)c2c(C)c1OC [Example 254, 6,7-Dimethoxy-5-methyl-2-{methyl-[3-(2-oxo-oxazolidin-3-yl)-benzyl]-amino}-1H-quinazolin-4-one] |
| 226 to 229.5 °C | COc1cc2[nH]c(N(C)Cc3cccc(N4CCOC4=O)c3)nc(=O)c2c(OC)c1OC [Example 255, 5,6,7-ZTrimethoxy-2-{methyl[3-(2-oxo-oxazolidin-3-yl)-benzyl]-amino}-1H-quinazolin-4-one] |
| 210.8 to 211.6 °C | COc1cc2[nH]c(N(C)Cc3cccc(N4CCC(C)C4=O)c3)nc(=O)c2c(C)c1OC (centres unmarked) [Example 256, 6,7-Dimethoxy-5-methyl-2-{methyl-[3-(3-methyl-2-oxo-pyrrolidin-1-yl)-benzyl]-amino}-1H-quinazolin-4-one] |
| 200.1 to 202.1 °C | CCC1CCN(c2cccc(CN(C)c3nc(=O)c4c(C)c(OC)c(OC)cc4[nH]3)c2)C1=O (centres unmarked) [Example 257, 2-{[3-(3-Ethyl-2-oxo-pyrrolidin-1-yl)-benzyl]-methyl-amino}-6,7-dimethoxy-5-methyl-1H-quinazolin-4-one] |
| 198.6 to 199.8 °C | COc1cc2[nH]c(N(C)Cc3cccc(N4C(=O)CCC4=O)c3)nc(=O)c2c(C)c1OC [Example 259] |

Second part, the compound before the results:

| SMILES | melting point |
| --- | --- |
| COc1cc2[nH]c(N(C)Cc3cccc(NCCO)c3)nc(=O)c2c(OC)c1OC [Example 182, 2-{[3-(2-Hydroxy-ethylamino)-benzyl]-methyl-amino}-5,6,7-trimethoxy-1H-quinazolin-4-one] | 60.5 to 61.5 °C |
| COc1cc2[nH]c(N(C)Cc3cccc(N(CCO)CCO)c3)nc(=O)c2c(OC)c1OC [Example 190, 2-({3-[Bis(2-hydroxy-ethyl)-amino]-bewnzyl}-methyl-amino)-5,6,7-trimethoxy-1H-quinazolin-4-one] | 138.1 to 141 °C |
| COc1cc2[nH]c(N(C)C(C)c3cccc(NCCNC(C)=O)c3)nc(=O)c2c(C)c1OC (centres unmarked) [Example 191, N-[2-(3-{1-[(6,7-Dimethoxy-5-methyl-4-oxo-1,4-dihydro-quinazolin-2-yl)-methyl-amino]-ethyl}-phenylamino)-ethyl]-acetamide] | 220.6 to 222.4 °C |
| C/N=C(/C)N(C)c1cccc(CN(C)c2nc(=O)c3c(C)c(OC)c(OC)cc3[nH]2)c1 [Example 194] | 181.2 to 186.6 °C |
| CN/C(C)=N/c1cccc(CN(C)c2nc(=O)c3c(C)c(OC)c(OC)cc3[nH]2)c1 [Example 195, N-(3-{[(6,7-Dimethoxy-5-methyl-4-oxo-1,4-dihydro-quinazolin-2-yl)-methyl-amino]-methyl}-phenyl)-N′-methyl-acetamide] | 233.1 to 233.9 °C |
| COc1cc2[nH]c(N(C)Cc3cccc(/N=C/N(C)C)c3)nc(=O)c2c(C)c1OC [Example 196] | 185 to 186 °C |
| COc1cc2[nH]c(N(C)Cc3cccc(/N=C(/C)N(C)C)c3)nc(=O)c2c(OC)c1OC [Example 197, N,N-Dimethyl-N′-(3-{[methyl-(5,6,7-trimethoxy-4-oxo-1,4-dihydro-quinazolin-2-yl)-amino]-methyl}-phenyl)acetamidine] | 199 to 201 °C |
| COc1cc2[nH]c(N(C)Cc3cccc(/N=C(\C(C)C)N(C)C)c3)nc(=O)c2c(OC)c1OC [Example 198, N,N-Dimethyl-N′-(3-{[methyl-(5,6,7-trimethoxy-4-oxo-1,4-dihydro-quinazolin-2-yl)-amino]-methyl}-phenyl)-isobutyramidine] | 148 to 150 °C |
| CCc1c(OC)c(OC)cc2[nH]c(N(C)Cc3cccc(/N=C(\C)N(C)C)c3)nc(=O)c12 [Example 199, N′-(3-{[(5-Ethyl-6,7-dimethoxy-4-oxo-1,4-dihydro-quinazolin-2-yl)-methyl-amino]-methyl}-phenyl)-N,N-dimethyl-acetamidine] | 224.6 to 225.5 °C |
| COc1cc2[nH]c(N(C)Cc3cccc(/N=C(\C4CCC4)N(C)C)c3)nc(=O)c2c(OC)c1OC [Example 203, N,N-Dimethyl-N′-(3-{[methyl-(5,6,7-trimethoxy-4-oxo-11,4-dihydro-quinazolin-2-yl)-amino]-methyl}-phenyl)-cyclobutanecarboxamidine] | 164.2 to 165.7 °C |
| COc1cc2[nH]c(N(C)Cc3cccc(/N=C4/CCCN4C)c3)nc(=O)c2c(OC)c1OC [Example 205, 5,6,7-Trimethoxy-2-(methyl-{3-[1-methyl-pyrrolidin-(2Z)-ylideneamino]-benzyl}-amino)-1H-quinazolin-4-one] | 130 to 133 °C |
| COc1cc2[nH]c(N(C)Cc3cc(N(C)C4=NCCC4)ccc3F)nc(=O)c2c(O)c1OC [Example 211, 2-({-[(4,5-Dihydro-3H-pyrrol-2-yl)-methyl-amino]-2-fluoro-benzyl}-methylamino)-5-hydroxy-6,7-dimethoxy-1H-quinazolin-4-one] | 264.9 to 267 °C |
| COc1cc2[nH]c(N(C)Cc3cccc(Nc4ncccn4)c3)nc(=O)c2c(OC)c1OC [Example 213, 5,6,7-Trimethoxy-2-{methyl-[3-(pyrimidin-2-ylamino)-benzyl]-amino}-1H-quinaozlin-4-one] | 190.3 to 191.1 °C |
| COc1cc2[nH]c(N(C)Cc3cccc(Nc4ccnc(Cl)n4)c3)nc(=O)c2c(OC)c1OC [Example 214, 2-{[3-(2-Chloro-pyrimidin-4-ylamino)-benzyl]-methyl-amino}-5,6,7-trimethoxy-1H-quinazolin-4-one] | 205.9 to 210.1 °C |
| COc1cc2[nH]c(N(C)Cc3cccc(Nc4nccc(Cl)n4)c3)nc(=O)c2c(OC)c1OC [Example 215, 2-{[3-(4-Chloro-pyrimidin-2-ylamino)-benzyl]-methyl-amino}-5,6,7-trimethoxy-1H-quinazolin-4-one] | 128.9 to 133.4 °C |
| COc1cc2[nH]c(N(C)Cc3cccc(Nc4nc(Cl)ncc4C)c3)nc(=O)c2c(OC)c1OC [Example 217, 2-{[3-(2-Chloro-5-methyl-pyrimidin-4-ylamino)-benzyl]-methyl-amino}-5,6,7-trimethoxy-1H-quinazolin-4-one] | 225.9 to 227 °C |
| COc1cc2[nH]c(N(C)Cc3cccc(Nc4cc(C)nc(Cl)n4)c3)nc(=O)c2c(OC)c1OC [Example 218, 2-{[3-(2-Chloro-6-methyl-pyrimidin-4-ylamino)-benzyl]-methyl-amino}-5,6,7-trimethoxy-1H-quinazolin-4-one] | 185.5 to 187.1 °C |
| COc1cc2[nH]c(N(C)Cc3cccc(Nc4nc(C)cc(Cl)n4)c3)nc(=O)c2c(OC)c1OC [Example 219, 2-{[3-(4-Chloro-6-methyl-pyrimidin-2-ylamino)-benzyl]-methyl-amino}-5,6,7-trimethoxy-1H-quinazolin-4-one] | 191.3 to 192.8 °C |
